US20090105270A1, “Kinase inhibition and anticancer therapy” (priority 2007, published 2009)

Assays:
ALK(h) = target: T1, ALK(h) (Homo sapiens, UniProt Q9UM73); assay: Upstate kinase activity inhibition assay ALK(h); format: biochemical; details: 40 min; read-out: percentage of enzyme activity that remains
T1 construct: purchased Upstate (KinaseProfiler service)

CDK2/cyclinE(h) = target: T2, CDK2/cyclinE(h) (Homo sapiens, UniProt P24941); assay: Upstate kinase activity inhibition assay CDK2/cyclinE(h); format: biochemical; details: 4 μM Compound E
T2 construct: purchased Upstate (KinaseProfiler service)

c-RAF(h) = target: T3, c-RAF(h) (Homo sapiens, UniProt P04049, Y340D/Y341D); assay: Upstate kinase activity inhibition assay c-RAF(h); format: biochemical; details: 40 min; read-out: percentage of enzyme activity that remains
T3 construct: purchased Upstate (KinaseProfiler service)

CSK(h) = target: T4, CSK(h) (Homo sapiens, UniProt P41240); assay: Upstate kinase activity inhibition assay CSK(h); format: biochemical
T4 construct: purchased Upstate (KinaseProfiler service)
T4 sequence (P41240 whole entry): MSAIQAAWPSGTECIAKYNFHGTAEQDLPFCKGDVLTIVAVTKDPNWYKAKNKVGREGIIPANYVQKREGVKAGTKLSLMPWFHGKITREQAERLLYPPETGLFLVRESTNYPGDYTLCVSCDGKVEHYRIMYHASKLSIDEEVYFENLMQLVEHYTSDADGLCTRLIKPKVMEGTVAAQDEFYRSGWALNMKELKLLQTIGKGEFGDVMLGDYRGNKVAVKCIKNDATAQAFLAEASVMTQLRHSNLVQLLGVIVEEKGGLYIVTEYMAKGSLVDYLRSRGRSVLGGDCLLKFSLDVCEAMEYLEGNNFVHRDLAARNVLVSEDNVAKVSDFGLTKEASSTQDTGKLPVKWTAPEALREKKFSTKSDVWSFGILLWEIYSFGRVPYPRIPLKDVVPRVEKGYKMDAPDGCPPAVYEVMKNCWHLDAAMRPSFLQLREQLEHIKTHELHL

DDR2(h) = target: T5, DDR2(h) (Homo sapiens, UniProt Q16832); assay: Upstate kinase activity inhibition assay DDR2(h); format: biochemical; details: 40 min; read-out: percentage of enzyme activity that remains
T5 construct: purchased Upstate (KinaseProfiler service)

EGFR(L858R)(h) = target: T6, EGFR(L858R)(h) (Homo sapiens, UniProt P00533, L858R); assay: Upstate kinase activity inhibition assay EGFR(L858R)(h); format: biochemical; details: 4 μM Compound E
T6 construct: purchased Upstate (KinaseProfiler service)

EphA7(h) = target: T7, EphA7(h) (Homo sapiens, UniProt Q15375); assay: Upstate kinase activity inhibition assay EphA7(h); format: biochemical; details: 40 min; read-out: percentage of enzyme activity that remains
T7 construct: purchased Upstate (KinaseProfiler service)

Fer(h) = target: T8, Fer(h) (Homo sapiens, UniProt P16591); assay: Upstate kinase activity inhibition assay Fer(h); format: biochemical; details: 40 min; read-out: percentage of enzyme activity that remains
T8 construct: purchased Upstate (KinaseProfiler service)

IKKα(h) = target: T9, IKKα(h) (Homo sapiens, UniProt O15111); assay: Upstate kinase activity inhibition assay IKKα(h); format: biochemical; details: 40 min; read-out: percentage of enzyme activity that remains
T9 construct: purchased Upstate (KinaseProfiler service)

NEK6(h) = target: T10, NEK6(h) (Homo sapiens, UniProt Q9HC98); assay: Upstate kinase activity inhibition assay NEK6(h); format: biochemical; details: 40 min; read-out: percentage of enzyme activity that remains
T10 construct: purchased Upstate (KinaseProfiler service)
T10 sequence (Q9HC98 whole entry): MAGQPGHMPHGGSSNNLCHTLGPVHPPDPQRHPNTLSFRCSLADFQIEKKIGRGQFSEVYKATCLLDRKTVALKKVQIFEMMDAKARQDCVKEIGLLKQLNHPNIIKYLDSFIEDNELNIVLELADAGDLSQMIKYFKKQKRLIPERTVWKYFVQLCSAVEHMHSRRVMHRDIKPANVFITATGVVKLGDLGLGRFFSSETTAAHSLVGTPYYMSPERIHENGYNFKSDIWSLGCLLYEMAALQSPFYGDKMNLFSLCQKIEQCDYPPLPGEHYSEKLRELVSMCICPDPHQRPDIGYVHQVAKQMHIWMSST

PTK5(h) = target: T11, PTK5(h) (Homo sapiens, UniProt P42685); assay: Upstate kinase activity inhibition assay PTK5(h); format: biochemical; details: 40 min; read-out: percentage of enzyme activity that remains
T11 construct: purchased Upstate (KinaseProfiler service)

TSSK2(h) = target: T12, TSSK2(h) (Homo sapiens, UniProt Q96PF2); assay: Upstate kinase activity inhibition assay TSSK2(h); format: biochemical; details: 40 min; read-out: percentage of enzyme activity that remains
T12 construct: purchased Upstate (KinaseProfiler service)
T12 sequence (Q96PF2 whole entry): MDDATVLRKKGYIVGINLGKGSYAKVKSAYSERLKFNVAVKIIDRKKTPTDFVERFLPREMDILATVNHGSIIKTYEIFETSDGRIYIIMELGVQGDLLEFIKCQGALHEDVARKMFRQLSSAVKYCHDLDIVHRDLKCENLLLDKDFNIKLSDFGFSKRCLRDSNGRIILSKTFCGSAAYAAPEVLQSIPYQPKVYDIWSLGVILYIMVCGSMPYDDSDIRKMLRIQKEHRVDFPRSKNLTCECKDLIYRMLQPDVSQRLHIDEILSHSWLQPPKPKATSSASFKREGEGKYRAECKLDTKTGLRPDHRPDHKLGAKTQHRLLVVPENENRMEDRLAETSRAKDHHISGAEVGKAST

ZAP-70(h) = target: T13, ZAP-70(h) (Homo sapiens, UniProt P43403); assay: Upstate kinase activity inhibition assay ZAP-70(h); format: biochemical; details: 40 min; read-out: percentage of enzyme activity that remains
T13 construct: purchased Upstate (KinaseProfiler service)

ALK4(h) = ALK4(h) (Homo sapiens, UniProt P36896); assay: Upstate kinase activity inhibition assay ALK4(h); details: 40 min, read-out: percentage of enzyme activity that remains
Yes(h) = Yes(h) (Homo sapiens, UniProt P07947); assay: Upstate kinase activity inhibition assay Yes(h); details: 40 min, read-out: percentage of enzyme activity that remains
Flt4(h) = Flt4(h) (Homo sapiens, UniProt P35916); assay: Upstate kinase activity inhibition assay Flt4(h); details: 40 min, read-out: percentage of enzyme activity that remains
IKKβ(h) = IKKβ(h) (Homo sapiens, UniProt O14920); assay: Upstate kinase activity inhibition assay IKKβ(h); details: 40 min, read-out: percentage of enzyme activity that remains
MELK(h) = MELK(h) (Homo sapiens, UniProt Q14680); assay: Upstate kinase activity inhibition assay MELK(h); details: 40 min, read-out: percentage of enzyme activity that remains
MLK1(h) = MLK1(h) (Homo sapiens, UniProt P80192); assay: Upstate kinase activity inhibition assay MLK1(h); details: 40 min, read-out: percentage of enzyme activity that remains
Sequence of MLK1(h) (P80192 whole entry): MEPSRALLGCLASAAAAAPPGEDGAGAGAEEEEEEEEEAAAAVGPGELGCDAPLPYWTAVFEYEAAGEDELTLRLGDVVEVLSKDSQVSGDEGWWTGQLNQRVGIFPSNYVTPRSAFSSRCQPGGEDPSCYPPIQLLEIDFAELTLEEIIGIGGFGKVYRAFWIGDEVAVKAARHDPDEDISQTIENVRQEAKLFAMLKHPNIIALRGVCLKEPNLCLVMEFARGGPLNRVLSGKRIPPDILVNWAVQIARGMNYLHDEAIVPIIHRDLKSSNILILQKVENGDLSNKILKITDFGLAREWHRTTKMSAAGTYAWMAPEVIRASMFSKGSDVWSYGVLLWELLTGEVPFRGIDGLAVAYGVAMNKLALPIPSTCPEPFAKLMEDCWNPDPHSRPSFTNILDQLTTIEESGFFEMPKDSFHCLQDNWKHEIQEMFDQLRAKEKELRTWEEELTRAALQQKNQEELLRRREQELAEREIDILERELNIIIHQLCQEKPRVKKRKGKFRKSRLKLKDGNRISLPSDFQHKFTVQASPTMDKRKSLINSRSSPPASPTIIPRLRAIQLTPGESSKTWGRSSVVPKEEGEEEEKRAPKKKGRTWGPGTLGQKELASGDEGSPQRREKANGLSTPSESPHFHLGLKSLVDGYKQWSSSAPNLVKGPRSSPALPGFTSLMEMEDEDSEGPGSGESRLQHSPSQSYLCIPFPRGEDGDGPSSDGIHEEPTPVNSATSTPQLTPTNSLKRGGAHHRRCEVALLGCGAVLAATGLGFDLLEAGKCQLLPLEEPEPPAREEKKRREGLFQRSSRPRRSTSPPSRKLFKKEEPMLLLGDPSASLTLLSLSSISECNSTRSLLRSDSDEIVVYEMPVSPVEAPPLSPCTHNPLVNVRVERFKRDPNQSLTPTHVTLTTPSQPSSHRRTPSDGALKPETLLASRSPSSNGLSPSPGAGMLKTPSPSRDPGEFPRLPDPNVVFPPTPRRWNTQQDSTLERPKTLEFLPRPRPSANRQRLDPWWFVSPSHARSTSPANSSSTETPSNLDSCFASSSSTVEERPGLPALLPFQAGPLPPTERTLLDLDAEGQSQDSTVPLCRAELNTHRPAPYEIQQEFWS

MST3(h) = MST3(h) (Homo sapiens, UniProt Q9Y6E0); assay: Upstate kinase activity inhibition assay MST3(h)
PAK5(h) = PAK5(h) (Homo sapiens, UniProt Q9P286); assay: Upstate kinase activity inhibition assay PAK5(h); details: 40 min, read-out: percentage of enzyme activity that remains
PAK6(h) = PAK6(h) (Homo sapiens, UniProt Q9NQU5); assay: Upstate kinase activity inhibition assay PAK6(h); details: 40 min, read-out: percentage of enzyme activity that remains
Sequence of PAK6(h) (Q9NQU5 whole entry): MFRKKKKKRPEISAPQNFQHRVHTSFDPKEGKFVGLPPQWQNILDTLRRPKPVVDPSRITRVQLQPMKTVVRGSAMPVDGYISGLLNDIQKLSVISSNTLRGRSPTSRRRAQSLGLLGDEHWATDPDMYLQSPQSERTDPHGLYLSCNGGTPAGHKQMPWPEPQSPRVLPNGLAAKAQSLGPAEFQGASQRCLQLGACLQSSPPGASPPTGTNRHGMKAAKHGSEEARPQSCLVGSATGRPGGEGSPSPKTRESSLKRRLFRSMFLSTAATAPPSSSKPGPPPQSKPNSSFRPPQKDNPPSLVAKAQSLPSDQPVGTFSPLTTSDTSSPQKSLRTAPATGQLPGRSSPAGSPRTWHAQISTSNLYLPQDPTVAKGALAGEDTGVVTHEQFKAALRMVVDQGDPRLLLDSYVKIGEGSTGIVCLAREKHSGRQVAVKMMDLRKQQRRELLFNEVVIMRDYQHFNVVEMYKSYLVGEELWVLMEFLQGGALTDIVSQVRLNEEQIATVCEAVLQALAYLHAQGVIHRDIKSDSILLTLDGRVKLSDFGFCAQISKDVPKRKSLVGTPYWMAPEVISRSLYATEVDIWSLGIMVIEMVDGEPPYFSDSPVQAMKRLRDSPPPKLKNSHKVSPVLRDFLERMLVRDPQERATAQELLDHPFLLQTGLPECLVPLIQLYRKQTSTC

PKCα(h) = PKCα(h) (Homo sapiens, UniProt P17252); assay: Upstate kinase activity inhibition assay PKCα(h); details: 40 min, read-out: percentage of enzyme activity that remains
Rsk2(h) = Rsk2(h) (Homo sapiens, UniProt P51812); assay: Upstate kinase activity inhibition assay Rsk2(h); details: 40 min, read-out: percentage of enzyme activity that remains
Sequence of Rsk2(h) (P51812 whole entry): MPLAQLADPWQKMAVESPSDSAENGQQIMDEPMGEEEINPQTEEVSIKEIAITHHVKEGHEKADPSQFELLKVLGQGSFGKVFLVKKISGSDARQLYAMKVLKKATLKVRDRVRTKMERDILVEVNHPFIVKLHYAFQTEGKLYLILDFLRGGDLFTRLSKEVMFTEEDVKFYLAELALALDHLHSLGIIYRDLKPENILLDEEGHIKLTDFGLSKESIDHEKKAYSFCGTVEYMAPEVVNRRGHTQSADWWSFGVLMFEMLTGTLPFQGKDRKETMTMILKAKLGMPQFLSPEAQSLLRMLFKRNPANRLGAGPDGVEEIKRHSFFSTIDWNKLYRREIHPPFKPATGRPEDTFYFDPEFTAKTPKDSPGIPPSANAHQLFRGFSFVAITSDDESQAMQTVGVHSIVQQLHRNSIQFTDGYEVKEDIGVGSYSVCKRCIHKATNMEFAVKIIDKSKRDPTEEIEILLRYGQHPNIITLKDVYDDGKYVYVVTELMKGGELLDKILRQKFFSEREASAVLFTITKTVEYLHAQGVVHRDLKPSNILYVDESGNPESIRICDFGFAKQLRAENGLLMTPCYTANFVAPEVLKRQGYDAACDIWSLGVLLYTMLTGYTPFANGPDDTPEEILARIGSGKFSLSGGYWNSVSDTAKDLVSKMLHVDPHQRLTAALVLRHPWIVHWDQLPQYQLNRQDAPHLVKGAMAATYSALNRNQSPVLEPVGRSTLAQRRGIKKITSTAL

SGK2(h) = SGK2(h) (Homo sapiens, UniProt Q9HBY8); assay: Upstate kinase activity inhibition assay SGK2(h); details: 40 min, read-out: percentage of enzyme activity that remains
DAPK1(h) = DAPK1(h) (Homo sapiens, UniProt P53355); assay: Upstate kinase activity inhibition assay DAPK1(h); details: 40 min, read-out: percentage of enzyme activity that remains
Sequence of DAPK1(h) (P53355 whole entry): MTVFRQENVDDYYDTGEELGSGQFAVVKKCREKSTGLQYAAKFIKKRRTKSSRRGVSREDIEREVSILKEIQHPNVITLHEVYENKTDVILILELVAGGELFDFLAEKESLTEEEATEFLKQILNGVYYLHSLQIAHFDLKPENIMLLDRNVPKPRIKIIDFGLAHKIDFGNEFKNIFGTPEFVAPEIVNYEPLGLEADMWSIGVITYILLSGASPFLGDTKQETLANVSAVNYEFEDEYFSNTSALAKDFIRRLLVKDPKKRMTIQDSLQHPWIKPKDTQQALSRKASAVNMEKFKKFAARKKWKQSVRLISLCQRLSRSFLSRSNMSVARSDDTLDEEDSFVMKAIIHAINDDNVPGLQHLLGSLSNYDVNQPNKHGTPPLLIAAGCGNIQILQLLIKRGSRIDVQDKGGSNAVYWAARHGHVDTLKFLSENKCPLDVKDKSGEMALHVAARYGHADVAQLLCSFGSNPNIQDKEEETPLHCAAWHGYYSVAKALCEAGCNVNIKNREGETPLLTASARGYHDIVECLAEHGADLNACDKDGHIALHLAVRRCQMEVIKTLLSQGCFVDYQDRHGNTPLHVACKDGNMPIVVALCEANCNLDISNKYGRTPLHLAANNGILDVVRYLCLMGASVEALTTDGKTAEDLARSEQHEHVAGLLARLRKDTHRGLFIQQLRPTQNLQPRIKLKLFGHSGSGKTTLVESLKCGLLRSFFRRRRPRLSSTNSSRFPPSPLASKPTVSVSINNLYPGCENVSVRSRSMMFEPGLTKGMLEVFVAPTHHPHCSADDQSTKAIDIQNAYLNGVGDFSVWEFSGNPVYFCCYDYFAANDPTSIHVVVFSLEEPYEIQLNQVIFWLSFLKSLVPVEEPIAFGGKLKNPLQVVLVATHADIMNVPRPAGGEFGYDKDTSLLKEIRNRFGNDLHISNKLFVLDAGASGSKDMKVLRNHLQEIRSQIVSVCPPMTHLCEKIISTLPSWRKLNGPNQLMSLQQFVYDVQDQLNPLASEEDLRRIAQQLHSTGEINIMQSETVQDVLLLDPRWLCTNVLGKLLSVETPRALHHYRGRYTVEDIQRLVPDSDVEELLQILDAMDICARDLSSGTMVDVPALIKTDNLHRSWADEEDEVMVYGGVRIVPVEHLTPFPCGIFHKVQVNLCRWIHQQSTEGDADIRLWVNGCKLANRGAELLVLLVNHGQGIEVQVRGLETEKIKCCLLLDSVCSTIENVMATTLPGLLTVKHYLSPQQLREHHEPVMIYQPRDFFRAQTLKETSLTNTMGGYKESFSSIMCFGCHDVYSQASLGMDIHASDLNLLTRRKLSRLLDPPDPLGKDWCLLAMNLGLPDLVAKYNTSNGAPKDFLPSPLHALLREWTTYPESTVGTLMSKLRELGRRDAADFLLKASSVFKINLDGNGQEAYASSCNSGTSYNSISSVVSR

EphB2(h) = EphB2(h) (Homo sapiens, UniProt P29323); assay: Upstate kinase activity inhibition assay EphB2(h)
EphB3(h) = EphB3(h) (Homo sapiens, UniProt P54753); assay: Upstate kinase activity inhibition assay EphB3(h); details: 40 min, read-out: percentage of enzyme activity that remains
MKK7β(h) = MKK7β(h) (Homo sapiens, UniProt O14733); assay: Upstate kinase activity inhibition assay MKK7β(h)
MRCKα(h) = MRCKα(h) (Homo sapiens, UniProt Q5VT25); assay: Upstate kinase activity inhibition assay MRCKα(h); details: 40 min, read-out: percentage of enzyme activity that remains

With `Cc1cc(Nc2cc(N3CCN(C)CC3)nc(Sc3ccc(NC(=O)C4CC4)cc3)n2)n[nH]1` [Compound E, Cyclopropane carboxylic acid {4-[4-(4-methyl-piperazin-1-yl)-6-(5-methyl-2H-pyrazol-3-ylamino)-pyrimidin-2-ylsulphanyl]-phenyl}-amide] the remaining activity at 0.2 µM (ALK(h)) was 70%, the remaining activity at 4 µM (ALK(h)) was 58% and the “percentage of enzyme activity that remains” value (CDK2/cyclinE(h)) was 125%. For the same compound, the remaining activity at 0.2 µM (c-RAF(h)) was 106%, the remaining activity at 4 µM (c-RAF(h)) was 100% and the “percentage of enzyme activity that remains” value (CSK(h); 0.2 μM Compound E) was 108%. For the same compound, the “percentage of enzyme activity that remains” value (CSK(h); 4 μM Compound E) was 87%, the remaining activity at 0.2 µM (DDR2(h)) was 100% and the “percentage of enzyme activity that remains” value (EGFR(L858R)(h)) was 77%. The remaining activity at 4 µM (EphA7(h)) was 78%, the remaining activity at 0.2 µM (Fer(h)) was 100% and the remaining activity at 4 µM (Fer(h)) was 48%. The remaining activity at 0.2 µM (IKKα(h)) was 103%, the remaining activity at 4 µM (IKKα(h)) was 99% and the remaining activity at 0.2 µM (NEK6(h)) was 86%. For the same compound, the remaining activity at 4 µM (NEK6(h)) was 85%, the remaining activity at 0.2 µM (PTK5(h)) was 97% and the remaining activity at 4 µM (PTK5(h)) was 54%. The remaining activity at 0.2 µM (TSSK2(h)) was 0%, the remaining activity at 4 µM (TSSK2(h)) was 0% and the remaining activity at 0.2 µM (ZAP-70(h)) was 75%. It also gave a remaining activity at 4 µM (ZAP-70(h)) of 64%, a remaining activity at 0.2 µM (ALK4(h)) of 103% and a remaining activity at 4 µM (ALK4(h)) of 124%. It also gave a remaining activity at 0.2 µM (Yes(h)) of 39%, a remaining activity at 4 µM (Yes(h)) of 2% and a remaining activity at 4 µM (Flt4(h)) of 10%. For the same compound, the remaining activity at 0.2 µM (IKKβ(h)) was 106%, the remaining activity at 4 µM (IKKβ(h)) was 117% and the remaining activity at 0.2 µM (MELK(h)) was 56%. The remaining activity at 4 µM (MELK(h)) was 13%, the remaining activity at 0.2 µM (MLK1(h)) was 54% and the remaining activity at 4 µM (MLK1(h)) was 9%. The “percentage of enzyme activity that remains” value (MST3(h); 0.2 μM Compound E) was 97%, the “percentage of enzyme activity that remains” value (MST3(h); 4 μM Compound E) was 140% and the remaining activity at 0.2 µM (PAK5(h)) was 93%. For the same compound, the remaining activity at 4 µM (PAK5(h)) was 68%, the remaining activity at 0.2 µM (PAK6(h)) was 92% and the remaining activity at 4 µM (PAK6(h)) was 92%. It also gave a remaining activity at 0.2 µM (PKCα(h)) of 115%, a remaining activity at 4 µM (PKCα(h)) of 105% and a remaining activity at 0.2 µM (Rsk2(h)) of 109%. The remaining activity at 4 µM (Rsk2(h)) was 82%, the remaining activity at 0.2 µM (SGK2(h)) was 102% and the remaining activity at 4 µM (SGK2(h)) was 102%. The remaining activity at 0.2 µM (DAPK1(h)) was 107%, the remaining activity at 4 µM (DAPK1(h)) was 100% and the “percentage of enzyme activity that remains” value (EphB2(h); 0.2 μM Compound E) was 121%. The “percentage of enzyme activity that remains” value (EphB2(h); 4 μM Compound E) was 107%, the remaining activity at 0.2 µM (EphB3(h)) was 99% and the remaining activity at 4 µM (EphB3(h)) was 89%. The “percentage of enzyme activity that remains” value (MKK7β(h); 0.2 μM Compound E) was 91%, the “percentage of enzyme activity that remains” value (MKK7β(h); 4 μM Compound E) was 97% and the remaining activity at 0.2 µM (MRCKα(h)) was 96%. For the same compound, the remaining activity at 4 µM (MRCKα(h)) was 99%.
